Consider eleven compounds from US6340689B1 (priority 1999, dated 2002).

For test [1], the system named is Erythromycin-resistant L. pneumophila. The class given is cell-based, Legionella pneumophila.
The subject of test [2] is Erythromycin-resistant Legionella spp. other than L. pneumophila. The class given is cell-based.

On to `COc1c(N2C[C@@H]3CCCN[C@@H]3C2)c(F)cc2c(=O)c(C(=O)O)cn(C3CC3)c12` [Moxifloxacin], for which, in test [1], the “Mean PAE” value is listed as 3.38 ± 2 h and the “PAE (mean PAE)” value amounted to 3.38 h. Besides, in test [2], the “Mean PAE” value is 2.02 ± 1 h.
Regarding `O=C(O)c1cn(C2CC2)c2cc(N3CCNCC3)c(F)cc2c1=O` [Ciprofloxacin], the “Mean PAE” value in test [1] was 2.86 ± 2 h; in test [2], 2.13 ± 3 h.
As for `CC1COc2c(N3CCN(C)CC3)c(F)cc3c(=O)c(C(=O)O)cn1c23` (centres unmarked) [Ofloxacin], the entries for the “Mean PAE” value in test [1] and in test [2] were 2.99 ± 1 h and 4.13 ± 2 h, respectively.
For `CC[C@H]1OC(=O)[C@H](C)[C@@H](O[C@H]2C[C@@](C)(OC)[C@@H](O)[C@H](C)O2)[C@H](C)[C@@H](O[C@@H]2O[C@H](C)C[C@H](N(C)C)[C@H]2O)[C@](C)(OC)C[C@@H](C)C(=O)[C@H](C)[C@@H](O)[C@]1(C)O` [Clarithromycin], in test [1], the “Mean PAE” value is 1.90 ± 1 h and the PAE was 1.9 h. The “Mean PAE” value in test [2] is recorded as 1.60 ± 2 h.
Consider `CC[C@H]1OC(=O)[C@H](C)[C@@H](O[C@H]2C[C@@](C)(OC)[C@@H](O)[C@H](C)O2)[C@H](C)[C@@H](O[C@@H]2O[C@H](C)C[C@H](N(C)C)[C@H]2O)[C@](C)(O)C[C@@H](C)CN(C)[C@H](C)[C@@H](O)[C@]1(C)O` [Azithromycin], for which the “Mean PAE” value in test [1] came out at 2.16 ± 1 h; in test [2], 2.13 ± 1 h.
On to `CO/N=C1\CN(c2nc3c(cc2F)c(=O)c(C(=O)O)cn3C2CC2)CC1CN` (racemic) [Gemifloxacin, (R,S)-7-(3-aminomethyl-4-methoxyiminopyrrolidin-1-yl)-1-cyclopropyl-6-fluoro-4-oxo-1,4-dihydro-1,8-naphthyridine-3-carboxylic acid], for which, in test [1], the “Mean PAE” value is 4.65 ± 3 h and the “PAE (mean PAE)” value turned out to be 4.65 h. In test [2], the “Mean PAE” value is 3.34 ± 2 h.
Regarding `N[C@@H]1[C@H]2CN(c3nc4c(cc3F)c(=O)c(C(=O)O)cn4-c3ccc(F)cc3F)C[C@@H]12` [Trovafloxacin], the “Mean PAE” value in test [1] is reported as 2.83 ± 2 h; in test [2], 2.25 ± 2 h. Moreover, the “PAE (mean PAE)” value in test [1] is 2.83 h.
Regarding `C[C@H]1COc2c(N3CCN(C)CC3)c(F)cc3c(=O)c(C(=O)O)cn1c23` [Levofloxacin], in test [1], the “Mean PAE” value came out at 2.59 ± 2 h and the PAE was 2.59 h. Further, the “Mean PAE” value in test [2] is given as 3.24 ± 1 h.
For `CO[C@H]1/C=C/O[C@@]2(C)Oc3c(C)c(O)c4c(O)c(c(/C=N/N5CCN(C)CC5)c(O)c4c3C2=O)NC(=O)/C(C)=C\C=C\[C@H](C)[C@H](O)[C@@H](C)[C@@H](O)[C@@H](C)[C@H](OC(C)=O)[C@@H]1C` [Rifampicin] the same measures were 0.93 ± 4 h, 0.9 h and 5.6 ± 3 h.
Regarding `Cc1c(F)c(N2CCNC(C)C2)cc2c1c(=O)c(C(=O)O)cn2C1CC1` (centres unmarked) [Grepafloxacin], in test [1], the “Mean PAE” value is 4.18 ± 3 h and the “PAE (mean PAE)” value was found to be 4.18 h. The “Mean PAE” value in test [2] worked out at 3.67 ± 1 h.
`CC[C@H]1OC(=O)[C@H](C)[C@@H](O[C@H]2C[C@@](C)(OC)[C@@H](O)[C@H](C)O2)[C@H](C)[C@@H](O[C@@H]2O[C@H](C)C[C@H](N(C)C)[C@H]2O)[C@](C)(O)C[C@@H](C)C(=O)[C@H](C)[C@@H](O)[C@]1(C)O` [Erythromycin]: the “Mean PAE” value was 0.90 ± 1 h in test [1] and 0.44 ± 1 h in test [2].
